The assay has as its system Aβ42 production in H4 APP751 SWE clone 8.20 cells. Put plainly: Cellular assay for inhibition of Aβ1-42 production. The assay is classed as cell-based. Particulars: H4 cells stably transfected with APP751 Swedish mutation (clone 8.20), 19 h incubation. The procedure: H4 cells stably transfected with APP751 containing the Swedish mutation (H4 APP751 SWE clone 8.20, developed at BMS) were maintained in log phase through twice weekly passage at a 1:20 split. […] Following incubation for 19 h in 5% CO2 at 37° C., plates were briefly centrifuged (1000 rpm, 5 min). A 10 μl aliquot from each well was transferred to a second assay plate (Costar 3709) for Aβ40 measurements. Antibody cocktails were freshly prepared by dilution into 40 mM Tris-HCl (pH 7.4) with 0.2% BSA and added to assay plates. For Aβ42 measurements, antibodies specific for the Aβ42 neoepitope (565, developed at BMS; conjugated to the Wallac reagent (Perkin Elmer)) and the N-terminal sequence of Aβ peptide (26D6, developed at SIBIA; conjugated to APC (Perkin Elmer)) were mixed and 20 μl of the mixture was added to each well of the incubated cell plate yielding a final concentration of 0.8 ng/well 565 and 75 ng/well 26D6. […] Assay plates containing antibodies were sealed with aluminum foil and incubated overnight at 4° C. Signal was determined using a Viewlux counter (Perkin Elmer) and IC50 values determined using curve fitting in CurveMaster (Excel Fit based).

In general, IC50 refers to the concentration that gives 50% inhibition. A higher IC50 goes with a need for much substance.

On to `CC#Cc1cncc(-c2cc([C@@]34N=C(N)SC[C@@H]3CCO4)c(F)cc2F)c1` (racemic) [Example 8, (±)-(4aR,7aR)-7a-(2,4-difluoro-5-(5-(prop-1-ynyl)pyridin-3-yl)phenyl)-4a,5,6,7a-tetrahydro-4H-furo[2,3-d][1,3]thiazin-2-amine], for which half-maximal inhibition (IC50) required 924 nM.
Next, `NC1=N[C@@]2(c3cc(NC(=O)c4ccccn4)ccc3F)OCC[C@H]2CS1` (racemic) [Example 5, (±)-N-(3-((4aR,7aR)-2-amino-4a,5,6,7a-tetrahydro-4H-furo[2,3-d][1,3]thiazin-7a-yl)-4-fluorophenyl)picolinamide]: 856 nM; `N#Cc1ccc(C(=O)Nc2ccc(F)c([C@@]34N=C(N)SC[C@@H]3CCO4)c2)nc1` [Example 3, N-(3-((4aR,7aR)-2-amino-4a,5,6,7a-tetrahydro-4H-furo[2,3-d][1,3]thiazin-7a-yl)-4-fluorophenyl)-5-cyanopicolinamide]: 72 nM; `NC1=N[C@@]2(c3cc(-c4cncnc4)c(F)cc3F)OCCC[C@H]2CS1` [Example 11, (4aR,8aR)-8a-(2,4-difluoro-5-(pyrimidin-5-yl)phenyl)-4,4a,5,6,7,8a-hexahydropyrano[2,3-d][1,3]thiazin-2-amine]: 995 nM.
Next, `NC1=N[C@@]2(c3cc(NC(=O)c4ccc(Cl)cn4)ccc3F)OCC[C@H]2CS1` [Example 2, N-(3-((4aR,7aR)-2-amino-4a,5,6,7a-tetrahydro-4H-furo[2,3-d][1,3]thiazin-7a-yl)-4-fluorophenyl)-5-chloropicolinamide]: 24 nM; `NC1=N[C@@]2(c3cc(NC(=O)c4ccc(F)cn4)ccc3F)OCC[C@H]2CS1` (racemic) [Example 4, (±)-N-(3-((4aR,7aR)-2-amino-4a,5,6,7a-tetrahydro-4H-furo[2,3-d][1,3]thiazin-7a-yl)-4-fluorophenyl)-5-fluoropicolinamide]: 465 nM.

(Values after patent US8598161B2, “Compounds for the reduction of beta-amyloid production” (Bristol-Myers Squibb Company, priority 2011, dated 2013).)
